Results as given in patent US20220211678A1, “USES OF (+)-A-DIHYDROTETRABENAZINE IN METHODS OF TREATING MOVEMENT DISORDER” (ADEPTIO PHARMACEUTICALS LIMITED, priority 2017, published 2022).

What was measured:
[1] = test system: non-amphetamine induced rats; test: Locomotor activity and stereotypic behaviour in non-amphetamine induced rats, open field arena (Example 2, Study 3); assay type: in vivo, rat; settings: Study 3, non-induced rats; (+)-α-DHTBZ 2.5 mg/kg or 5 mg/kg, risperidone 1 mg/kg
Protocol: All animal experiments were carried out according to the National Institute of Health (NIH) guidelines for the care and use of laboratory animals, and approved by the National Animal Experiment Board, Finland. Male CD (Charles River Laboratories, Germany) at weight range of 200-250 g (165-200 g upon arrival) were used for the experiments. Animals were housed at a standard temperature (22±1° C.) and in a light-controlled environment (lights on from 7 am to 8 pm) with ad libitum access to food and water.
Locomotor activity of the rats was tested in open field arena. The open field test was performed during the rat light cycle and under a normal lighting evenly distributed to the test chambers. The paths of the rats were recorded by activity monitor (Med. Associates Inc.).
Dosing the vehicle, vehicle-amphetamine, (+)-α-DHTBZ or risperidone was done prior to LMA test. The rats were placed in the centre of the arena, and the path was recorded for 60 minutes.
Animals were grouped as follows: • Group 1: 10 rats treated with Vehicle • Group 2: 10 rats treated with (+)-α-DHTBZ 2.5 mg/kg • Group 3: 10 rats treated with (+)-α-DHTBZ 5 mg/kg • Group 4: 10 rats treated with risperidone 1 mg/kg

VMAT2 [2] = molecular target: T1, VMAT2 (Homo sapiens, UniProt Q05940); test: % VMAT2 blocking by PET scan 60-120 minutes after oral dosing of human volunteers (Example 1A); assay type: in vivo
T1 construct: from tissue; host or cells: brain of living human volunteers, measured by PET
T1 sequence (Q05940 whole entry): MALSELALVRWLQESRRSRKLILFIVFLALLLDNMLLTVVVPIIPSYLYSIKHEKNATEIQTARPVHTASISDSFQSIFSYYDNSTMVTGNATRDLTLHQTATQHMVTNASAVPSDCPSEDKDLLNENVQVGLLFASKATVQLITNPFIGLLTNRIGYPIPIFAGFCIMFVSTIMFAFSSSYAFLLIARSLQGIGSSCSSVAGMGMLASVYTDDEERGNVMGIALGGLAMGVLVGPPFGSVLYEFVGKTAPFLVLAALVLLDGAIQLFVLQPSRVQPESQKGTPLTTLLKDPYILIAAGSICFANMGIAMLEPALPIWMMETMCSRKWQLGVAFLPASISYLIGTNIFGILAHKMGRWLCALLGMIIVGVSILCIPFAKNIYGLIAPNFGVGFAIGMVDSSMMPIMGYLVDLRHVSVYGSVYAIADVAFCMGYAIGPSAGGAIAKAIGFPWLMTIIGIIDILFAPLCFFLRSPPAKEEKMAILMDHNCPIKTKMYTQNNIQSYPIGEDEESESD
Excerpt: (§1) Complete blocking of VMAT2 is considered undesirable as this can lead to unwanted side effects, such as Parkinsonism. […] The levels of VMAT2 blocking can be determined by competitive binding studies using Positron Emission Tomography (PET). By co-administering a radioactive ligand with the compound of interest at various concentrations, the proportion of binding sites occupied can be determined (see for example, Matthews et al., “Positron emission tomography molecular imaging for drug development”, Br. J. Clin. Pharmacol., 73:2, 175-186). Accordingly, the invention also provides:
In four of the volunteers, blood sample were taken at 30, 60, 120 and 180 minutes after drug administration. Blood samples were not taken from the fifth volunteer. At 60 minutes after drug administration, PET scans were initiated and these were stopped at 120 minutes after drug administration.
The experiment was carried out at dosages of 7.5 mg, 15 mg and 22.5 mg.

[3] = Plasma levels of (+)-α-dihydrotetrabenazine up to 3 hours after oral dosing of human volunteers (Example 1A); assay type: in vivo; settings: 7.5 mg oral, 0.5 h
Protocol: […] […] Blood samples were not taken from the fifth volunteer. At 60 minutes after drug administration, PET scans were initiated and these were stopped at 120 minutes after drug administration. The experiment was carried out at dosages of 7.5 mg, 15 mg and 22.5 mg.

[4] = Plasma levels of (+)-α-dihydrotetrabenazine up to 7 hours after oral dosing of human volunteers (Example 1B); assay type: in vivo; settings: 7.5 mg, 7.5 mg oral
Protocol: (§2) Volunteers 1 and 2 were the same as volunteers 1 and 2 in Example 1A described above. […] Blood sample were taken from all volunteers 1 to 3 at 2, 4, 6 and 7 hours after drug administration. In addition, in all volunteers PET scans were initiated at 6 hours after drug administration and these were stopped at 7 hours after drug administration.

VMAT2 [5] = molecular target: T1, VMAT2; test: % VMAT2 blocking by PET scan 6-7 hours after oral dosing of human volunteers (Example 1B); assay type: in vivo; settings: for reduction of level of VMAT2 blocking after 6-7 hours compared to 1-2 hours following administration: 7.5 mg
Excerpt: as §1, §2

## COc1cc2c(cc1OC)[C@H]1C[C@@H](O)[C@H](CC(C)C)CN1CC2 [(+)-α-dihydrotetrabenazine, (R,R,R)-3-isobutyl-9,10-dimethyloxy-1,3,4,5,7,11b-hexahydro-2H-pyrido[2,1-a]isoquinolin-2-ol]
[1]
  total movement compared to rats treated with the vehicle: comparable
  total stereotypic behaviour compared to rats treated with the vehicle: comparable
VMAT2 [2]; 7.5 mg oral, PET scan 60-120 min after administration, subject 1 (112 kg)
  % VMAT2 blocking: 54%
VMAT2 [2]; 7.5 mg oral, PET scan 60-120 min after administration, subject 2 (76 kg)
  % VMAT2 blocking: 73%
VMAT2 [2]; 7.5 mg oral, PET scan 60-120 min after administration, subject 3 (129 kg)
  % VMAT2 blocking: 62%
VMAT2 [2]; 7.5 mg oral, PET scan 60-120 min after administration, subject 4 (59 kg)
  % VMAT2 blocking: 84%
VMAT2 [2]; 7.5 mg oral, PET scan 60-120 min after administration, subject 5 (91 kg)
  % VMAT2 blocking: 73%
VMAT2 [2]; 7.5 mg oral, PET scan 60-120 min after administration, subject 6 (68 kg)
  % VMAT2 blocking: 60%
VMAT2 [2]; 15 mg oral, PET scan 60-120 min after administration, subject 1 (112 kg)
  % VMAT2 blocking: 73%
VMAT2 [2]; 15 mg oral, PET scan 60-120 min after administration, subject 2 (76 kg)
  % VMAT2 blocking: 83%
VMAT2 [2]; 15 mg oral, PET scan 60-120 min after administration, subject 3 (129 kg)
  % VMAT2 blocking: 69%
VMAT2 [2]; 15 mg oral, PET scan 60-120 min after administration, subject 4 (59 kg)
  % VMAT2 blocking: 89%
VMAT2 [2]; 15 mg oral, PET scan 60-120 min after administration, subject 5 (91 kg)
  % VMAT2 blocking: 79%
VMAT2 [2]; 15 mg oral, PET scan 60-120 min after administration, subject 6 (68 kg)
  % VMAT2 blocking: 76%
VMAT2 [2]; 22.5 mg oral, PET scan 60-120 min after administration, subject 1 (112 kg)
  % VMAT2 blocking: 75%
VMAT2 [2]; 22.5 mg oral, PET scan 60-120 min after administration, subject 2 (76 kg)
  % VMAT2 blocking: 82%
VMAT2 [2]; 22.5 mg oral, PET scan 60-120 min after administration, subject 3 (129 kg)
  % VMAT2 blocking: 74%
VMAT2 [2]; 22.5 mg oral, PET scan 60-120 min after administration, subject 5 (91 kg)
  % VMAT2 blocking: 82%
VMAT2 [2]; 22.5 mg oral, PET scan 60-120 min after administration, subject 6 (68 kg)
  % VMAT2 blocking: 62%
VMAT2 [2]; heavier individuals, doses as low as 7.5 mg
  % VMAT2 blocking: at least 50%
[3]; subject 1 (112 kg)
  plasma concentration of (+)-α-dihydrotetrabenazine: BLQ
[3]; subject 6 (68 kg)
  plasma concentration of (+)-α-dihydrotetrabenazine: BLQ
[4]; subject 1 (112 kg)
  concentration at 2 h: 6.01 ng/mL
  concentration at 4 h: 4.54 ng/mL
  concentration at 6 h: 3.65 ng/mL
  concentration at 7 h: 8.7 ng/mL
[4]; subject 2 (76 kg)
  concentration at 2 h: 17.5 ng/mL
  concentration at 4 h: 4.54 ng/mL
  concentration at 6 h: 3.65 ng/mL
  concentration at 7 h: 11.7 ng/mL
[4]; subject 3 (76 kg)
  concentration at 2 h: 7.92 ng/mL
  concentration at 4 h: 5.57 ng/mL
  concentration at 6 h: 4.84 ng/mL
  concentration at 7 h: 12.8 ng/mL
VMAT2 [5]; 7.5 mg oral, PET scan 6-7 hours after administration, subject 1 (112 kg)
  % VMAT2 blocking: 38%
VMAT2 [5]; 7.5 mg oral, PET scan 6-7 hours after administration, subject 2 (76 kg)
  % VMAT2 blocking: 65%
VMAT2 [5]; 7.5 mg oral, PET scan 6-7 hours after administration, subject 3 (76 kg)
  % VMAT2 blocking: 41%
VMAT2 [5]; 7.5 mg oral, PET scan 6-7 hours after administration, subject 4 (95 kg)
  % VMAT2 blocking: 34%
VMAT2 [5]; 7.5 mg oral, PET scan 6-7 hours after administration, subject 5 (99 kg)
  % VMAT2 blocking: 36%
VMAT2 [5]; subject 1
  reduction of level of VMAT2 blocking after 6-7 hours compared to 1-2 hours following administration: 30%
VMAT2 [5]; subject 2
  reduction of level of VMAT2 blocking after 6-7 hours compared to 1-2 hours following administration: 11%
VMAT2 [5]; after 6 hours following administration of 7.5 mg
  % VMAT2 blocking: greater than 30%
